Results: patent publication US7030130B2, “Benzofuran derivatives and their use as antibacterial agents” (Arpida AG, priority 2000, dated 2006)
Values after ≈ are worked out from the molar mass of the structure shown.

How the values were obtained:
Assay in all cases: Antimicrobial susceptibility testing (NCCLS M7-A5), MIC
Assay type in all cases: cell-based
[1] = test system: Streptococcus pneumoniae ATCC 49619; settings: ATCC49619, in vitro, read-out: Minimum Inhibitory Concentration (MIC)
Procedure: (§1) Antimicrobial susceptibility testing was performed in accordance with the National Committee for Clinical Laboratory Standards (NCCLS) procedure [M7-A5, 2001]. […] Methods for Dilution Antimicrobial Susceptibility Tests for Bacteria That Grow Aerobically; Approved Standard—Fifth Edition American National Standard

[2] = test system: Escherichia coil ATCC 25922; settings: ATCC25922, in vitro, read-out: Minimum Inhibitory Concentration (MIC)
Procedure: as §1

[3] = test system: Bacillus subtilis ATCC 6051; settings: ATCC6051, in vitro, read-out: Minimum Inhibitory Concentration (MIC)
Procedure: as §1

[4] = test system: Staphylococcus aureus ATCC 25923; settings: ATCC25923, in vitro, read-out: Minimum Inhibitory Concentration (MIC)
Procedure: as §1

[5] = test system: Staphylococcus epidermidis ATCC 12228; settings: ATCC12228, in vitro, read-out: Minimum Inhibitory Concentration (MIC)
Procedure: as §1

[6] = test system: Enterococcus faecalis ATCC 29212; settings: ATCC29212, in vitro, read-out: Minimum Inhibitory Concentration (MIC)
Procedure: as §1

MIC [1] [µg/mL]	MIC [2] [µg/mL]	MIC [3] [µg/mL]	MIC [4] [µg/mL]	MIC [5] [µg/mL]	MIC [6] [µg/mL]	SMILES
0.125 (≈ 0.353 µM)	4 (≈ 11.3 µM)	0.062 (≈ 0.175 µM)	0.062 (≈ 0.175 µM)	0.062 (≈ 0.175 µM)	0.5 (≈ 1.41 µM)	COc1cc(Cc2cnc(N)nc2N)c2cc(CC3CC3)oc2c1OC [Example 20, 5-(2-Cyclopropylmethyl-6,7-dimethoxy-benzofuran-4-ylmethyl)-pyrimidine-2,4-diamine]
0.5 (≈ 1.28 µM)	2 (≈ 5.12 µM)	0.062 (≈ 0.159 µM)	0.062 (≈ 0.159 µM)	0.062 (≈ 0.159 µM)	0.125 (≈ 0.32 µM)	COc1cc(Cc2cnc(N)nc2N)c2cc(Cc3ccccc3)oc2c1OC [Example 21, 5-(2-Benzyl-6,7-dimethoxy-benzofuran-4-ylmethyl)-pyrimidine-2,4-diamine]
0.5 (≈ 1.22 µM)	2 (≈ 4.9 µM)	0.25 (≈ 0.612 µM)	0.25 (≈ 0.612 µM)	0.015 (≈ 0.0367 µM)	1 (≈ 2.45 µM)	COc1cc(Cc2cnc(N)nc2N)c2cc(Cc3ccc(F)cc3)oc2c1OC [Example 72, 5-[2-(4-fluoro-benzyl)-6,7-dimethoxy-benzofuran-4-ylmethyl]-pyrimidine-2,4-diamine]
2 (≈ 6.89 µM)	0.25 (≈ 0.861 µM)	0.5 (≈ 1.72 µM)	2 (≈ 6.89 µM)	0.062 (≈ 0.214 µM)	0.5 (≈ 1.72 µM)	COc1cc(Cc2cnc(N)nc2N)cc(OC)c1OC [Trimethoprim, 2,4-diamino-5-(3,4,5-trimethoxybenzyl)pyrimidine, reference compound]
